Measured values taken from the supplement of paper PMC10307832.

How the values were obtained:
Test in all cases: relative viability (nuclei count vs DMSO), 5 days (fraction); higher = more cells survive
Daporinad + Pictilisib = compound: O=C(/C=C/c1cccnc1)NCCCCC1CCN(C(=O)c2ccccc2)CC1 [Daporinad] + CS(=O)(=O)N1CCN(Cc2cc3nc(-c4cccc5[nH]ncc45)nc(N4CCOCC4)c3s2)CC1 [Pictilisib] (partner 1 µM)
Procedure, shortened: (§1)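 Relative viability equals treated-well nuclei counts divided by vehicle-well nuclei counts. Counts came from 4× images of lung cancer cell lines grown in 1536-well plates for 5 days after pin-tool dosing on the day after seeding. Dosing used one drug alone or a fixed anchor-drug dose plus five library-drug doses (not always all listed) in √10 steps, and values are medians of duplicate plates.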

Daporinad + AZD7762 = compound: O=C(/C=C/c1cccnc1)NCCCCC1CCN(C(=O)c2ccccc2)CC1 [Daporinad] + NC(=O)Nc1cc(-c2cccc(F)c2)sc1C(=O)N[C@H]1CCCNC1 [AZD7762] (partner 0.2 µM)
Procedure, shortened: as §1

R406 + Luminespib = compound: COc1cc(Nc2ncc(F)c(Nc3ccc4c(n3)NC(=O)C(C)(C)O4)n2)cc(OC)c1OC [R406] + CCNC(=O)c1noc(-c2cc(C(C)C)c(O)cc2O)c1-c1ccc(CN2CCOCC2)cc1 [Luminespib] (partner 0.01 µM)
Procedure, shortened: as §1

R406 + Olaparib = compound: COc1cc(Nc2ncc(F)c(Nc3ccc4c(n3)NC(=O)C(C)(C)O4)n2)cc(OC)c1OC [R406] + O=C(c1cc(Cc2n[nH]c(=O)c3ccccc23)ccc1F)N1CCN(C(=O)C2CC2)CC1 [Olaparib] (partner 8 µM)
Procedure, shortened: as §1

| Cell Line | relative viability (Daporinad + Pictilisib; first compound 0.0005 µM) | relative viability (Daporinad + Pictilisib; first compound 0.001581 µM) | relative viability (Daporinad + Pictilisib; first compound 0.005 µM) | relative viability (Daporinad + Pictilisib; first compound 0.01581 µM) | relative viability (Daporinad + AZD7762; first compound 0.0005 µM) | relative viability (Daporinad + AZD7762; first compound 0.001581 µM) | relative viability (Daporinad + AZD7762; first compound 0.005 µM) | relative viability (Daporinad + AZD7762; first compound 0.01581 µM) | relative viability (R406 + Luminespib; first compound 0.08 µM) | relative viability (R406 + Luminespib; first compound 0.253 µM) | relative viability (R406 + Luminespib; first compound 0.8 µM) | relative viability (R406 + Luminespib; first compound 2.53 µM) | relative viability (R406 + Luminespib; first compound 8 µM) | relative viability (R406 + Olaparib; first compound 0.08 µM) | relative viability (R406 + Olaparib; first compound 0.253 µM) | relative viability (R406 + Olaparib; first compound 0.8 µM) | relative viability (R406 + Olaparib; first compound 2.53 µM) | relative viability (R406 + Olaparib; first compound 8 µM) |
| --- | --- | --- | --- | --- | --- | --- | --- | --- | --- | --- | --- | --- | --- | --- | --- | --- | --- | --- |
| PC-14 | 0.656 | 0.726 | 0.876 | 0.735 | 0.22 | 0.363 | 0.362 | 0.45 | 0.153 | 0.171 | 0.139 | 0.123 | 0.126 | 0.271 | 0.257 | 0.225 | 0.291 | 0.0748 |
| NCI-H1755 | 0.442 | 0.44 | 0.452 | 0.457 | 0.429 | 0.43 | 0.462 | 0.5 | 0.351 | 0.459 | 0.255 | 0.211 | 0.334 | 0.801 | 0.88 | 0.869 | 0.792 | 0.502 |
| NCI-H322M | 0.482 | 0.55 | 0.575 | 0.52 | 0.579 | 0.592 | 0.54 | 0.456 | 0.791 | 0.827 | 0.855 | 0.306 | 0.35 | 0.654 | 0.695 | 0.826 | 0.641 | 0.488 |
| NCI-H3122 | 0.446 | 0.617 | 0.677 | 0.692 | 0.978 | 1.05 | 1.09 | 0.825 | 0.114 | 0.116 | 0.132 | – | 0.0937 | 0.637 | 0.739 | 0.69 | 0.566 | 0.625 |
| NCI-H441 | 0.435 | 0.631 | 0.588 | 0.507 | 1.34 | 1.34 | 1.52 | 1.25 | 0.399 | 0.373 | 0.432 | 0.277 | 0.209 | 0.429 | 0.693 | 0.619 | 0.489 | 0.322 |
| NCI-H2087 | 0.877 | 1.1 | 0.951 | 0.907 | 1.21 | 1.41 | 1.37 | 1.17 | 0.209 | 0.123 | 0.162 | – | 0.124 | 0.558 | 0.581 | 0.739 | 0.488 | 0.32 |
| LC-2-ad | 0.389 | 0.514 | 0.64 | 0.675 | 0.762 | 0.88 | 0.79 | 0.964 | 0.982 | 1.13 | 0.916 | 0.456 | 0.42 | 0.728 | 0.809 | 0.694 | 0.699 | 0.45 |
| NCI-H1915 | 0.967 | 1.15 | 1.13 | 0.929 | 0.667 | 0.742 | 0.716 | 0.71 | 0.819 | 0.886 | 0.982 | – | 0.624 | 0.286 | 0.267 | 0.263 | 0.237 | 0.237 |
| LXF-289 | 0.714 | 0.862 | 0.879 | 0.859 | 1.01 | 1.14 | 1.19 | 1.19 | 0.629 | 0.733 | 0.713 | 0.447 | 0.405 | 1.08 | 1.18 | 1.12 | 1.02 | 0.219 |
| PC-3 [JPC-3] | 0.703 | 0.987 | 0.824 | 0.659 | 0.734 | 0.829 | 0.9 | 0.836 | 0.743 | 0.708 | 0.903 | 0.485 | 0.509 | 1.15 | 1.3 | 1.13 | 0.838 | 0.452 |
| NCI-H1666 | 0.508 | 0.482 | 0.456 | 0.494 | 0.773 | 0.874 | 0.941 | 0.851 | 1.02 | 1.16 | 1.03 | 1.05 | 0.64 | 0.74 | 0.797 | 0.725 | 0.824 | 0.687 |
| NCI-H2085 | 0.438 | 0.463 | 0.526 | 0.554 | 0.879 | – | 1.03 | 1.1 | 0.437 | 0.353 | 0.525 | 0.319 | 0.279 | 0.79 | 0.823 | 0.788 | 0.738 | 0.458 |
| NCI-H1734 | 0.454 | 0.529 | 0.557 | 0.431 | 0.546 | 0.521 | 0.51 | 0.328 | 0.196 | 0.193 | 0.207 | 0.189 | 0.16 | 0.641 | 0.654 | 0.688 | 0.542 | 0.417 |
| NCI-H2126 | 0.529 | 0.516 | 0.485 | 0.486 | 1.1 | 0.976 | 0.992 | 1.04 | 0.826 | 0.868 | 0.796 | 0.597 | 0.437 | 0.933 | 0.943 | 0.933 | 0.855 | 0.557 |
| EMC-BAC-2 | 0.628 | 0.567 | 0.485 | 0.319 | 1.09 | 1.28 | 1.02 | 0.413 | 1.14 | 1.15 | 1.27 | 0.745 | 0.532 | 0.46 | 0.547 | 0.468 | 0.393 | 0.307 |
| NCI-H1993 | 0.925 | 0.684 | 0.798 | 0.869 | 0.645 | 0.774 | 0.787 | 0.962 | 0.78 | 1.11 | 0.988 | 0.359 | 0.577 | 1.14 | 1.02 | 1.07 | 0.992 | 0.918 |
| NCI-H596 | 0.402 | 0.371 | 0.421 | 0.448 | 0.867 | 1.09 | 1.27 | 1.03 | 0.817 | 1.2 | 1.27 | 0.55 | 0.132 | 0.626 | 0.734 | 0.606 | 0.641 | 0.377 |
| NCI-H650 | 0.937 | 0.962 | 1.02 | 1.05 | 0.931 | 0.775 | 1.32 | 1.06 | 0.81 | 0.878 | 0.879 | 0.294 | 0.487 | 0.342 | 0.42 | 0.435 | 0.313 | 0.301 |
